Test system: HERG overexpressing cells
Assay: Dofetilide responsiveness of action potentials
Settings: action potential after 1, 2 or 3 minute treatment (FIGS. 3A-D)
Experimental: AP is shown with-out DOF (FIG. 3A), or after 1 minute (FIG. 3B), 2 minute (FIG. 3C), or 3 minute treatments (FIG. 3D).

Question: `CN(CCOc1ccc(NS(C)(=O)=O)cc1)CCc1ccc(NS(C)(=O)=O)cc1` [dofetilide, Dofetilide] was tested. Which “sensitivity to the effects of dofetilide” value did it give?
Answer: sensitive

— patent US20100150887A1, “Tissue Progenitor Cells That Overexpress ERG” (priority 2007, published 2010)
